Measured values: patent US9180163B2, “Parstatin peptides” (priority 2009, dated 2015)

Test system: HUVEC cells
Assay: modified Boyden's chamber cell migration assay
Assay type: cell-based, human
Conditions: toward 5% FBS, 6 h; other peptides 10 μM
Procedure: HUVEC cell migration was assessed using a modified Boyden's chamber assay, i.e., in Transwell cell culture chambers (Corning Life Sciences, Acton, Mass.). Briefly, polycarbonate filters with 8 μm pores were used to separate the upper and the lower chambers. Cells were added to the upper compartment at a density of 10,000 cells/100 μl in serum-free medium containing 0.5% BSA and incubated for 6 h. Directional migration (chemotaxis) in the lower chamber was induced by addition of medium containing 5% FBS to the lower chamber. Where indicated parstatin or other peptides were added to lower chamber.
Cells on the filters were fixed and stained. The non-migrated cells (cells in upper surface) were removed by wiping with cotton swabs. The cells on the lower surface were counted manually under microscope in six predetermined fields. Parstatin (1-41) attenuated chemotactic cell migration through microporous membrane in response to serum (FIG. 3C). When human parstatin was combined with 5% FBS, the number of migrated cells was reduced in concentration-dependent manner.

“TRARRPESKATNATLDPR (listed as Homo sapiens) [parstatin (24-41), 24-41 (18 amino acids) of human parstatin, hydrophilic fragment]” was tested, and the chemotactic cell migration was “without effect”.
